Assay [1] concerns pERK in NCI-H1838 (NF1-LOF). Briefly: pERK modulation in vitro, MSD ELISA, NCI-H1838. To be noted: for extent of the pERK increase: NCI-H1838, compared across type II RAF inhibitors; for EC50: read-out: pERK EC50. In general terms: In an ELISA, binding on a coated surface is turned into a signal by an enzyme label.
Description: (§1) MSD ELISA experiments were conducted by WuXi AppTec on whole cell lysates and generated using the Phospho/Total ERK1/2 Assay Whole Cell Lysate Kit (MSD, cat. no. K15107D) according to the manufacturer’s protocol.
(§2) In vitro modulation of pERK levels was assessed in NF1-LOF and BRAF V600E tumor cell lines by MSD ELISA.
(§3) pERK levels were assessed 1 hour after treatment with each of the test compounds or control. Preparation of 96-well plates for MSD ELISA was performed according to the manufacturer’s instructions using the Phospho/Total ERK1/2 Assay Whole Cell Lysate Kit (MSD, cat no. K15107D). The plates were read using the MSD reader (MESO QuickPlex SQ120, cat. no. SQ120, RRID: SCR_020304). The A375 BRAF V600E tumor cell line served as a positive control.
(§4) The percent phosphoprotein in a sample was calculated using MSD phospho-/total multiplex phosphoprotein assays, as well as the following formula: anti-total and anti-phospho assay in the same well: % phosphoprotein = [(2 × phospho signal)/(phospho signal + total signal)] × 100. The ratio of pERK to total ERK was normalized to the ratio of the DMSO control group. EC50 pERK values and concentration response curves were generated using GraphPad Prism software analysis (RRID: SCR_002798).
Assay [2] deals with pERK in sNF96.2 (NF1-LOF). As to the kind of experiment: pERK modulation in vitro, MSD ELISA, sNF96.2. The settings on record: read-out: pERK EC50.
Description: as §1, §2, §3, §4
Another assay concerns MeWo. Briefly: CellTiter-Glo cell viability assay, MeWo. Background: ATP-based viability assays read luminescence as a measure of living cells.
A further assay relates to pERK in MeWo (NF1-LOF). Briefly: pERK modulation in vitro, MSD ELISA, MeWo.
In another assay the test system is CRAF wt. Further details: method as in earlier work. To be noted: full length human construct; GST-tagged CRAF wild type, 50 nmol/L biotinylated MEK, ATP 10 μmol/L; 41 (TAK-632: ref 26-28); cited from earlier work.
Another assay relates to sNF96.2. Briefly: CellTiter-Glo cell viability assay, sNF96.2. The settings on record: read-out: Proliferation EC50.
The subject of a further assay is A375. Briefly: CellTiter-Glo cell viability assay, A375. To be noted: read-out: Proliferation EC50.
Assay [3] deals with pERK in A375 (BRAF V600E). Briefly: pERK modulation in vitro, MSD ELISA, A375. Type of assay: cell-based. The settings on record: A375, BRAF V600E, melanoma, 1 hour after treatment, n = 2, read-out: pERK EC50.
Description: as §1, §2, §3, §4
The next assay has as its system NCI-H1838. As to the kind of experiment: CellTiter-Glo cell viability assay, NCI-H1838. The settings on record: read-out: Proliferation EC50.
The target in the next assay is T1, ARAF (Homo sapiens, UniProt P10398).
T1 sequence (P10398 310-570 limits assumed): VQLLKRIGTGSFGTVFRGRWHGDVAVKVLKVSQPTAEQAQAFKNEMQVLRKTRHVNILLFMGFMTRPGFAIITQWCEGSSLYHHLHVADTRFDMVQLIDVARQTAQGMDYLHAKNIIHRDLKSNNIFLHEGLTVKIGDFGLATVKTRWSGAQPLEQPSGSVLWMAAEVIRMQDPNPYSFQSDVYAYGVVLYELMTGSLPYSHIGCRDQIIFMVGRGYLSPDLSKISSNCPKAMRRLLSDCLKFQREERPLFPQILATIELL
Briefly: Time-resolved fluorescence energy transfer binding assay (KINETICfinder). To be noted: partial length active recombinant human ARAF at 5 nmol/L; 60 minutes, room temperature; singlicate. On the procedure:
Compounds were mixed with assay buffer (50 mmol/L HEPES pH 7.5, 1 mmol/L Ethyleneglycol-bis-(aminoethyl-ether)-N,N,N',N'-tetraacetic acid, 0.01% Brij-35, 10 mmol/L MgCl2, and 2 mmol/L Dithiothreitol), and 5 μL of this solution was transferred to the assay plate. The final concentration of DMSO in the assay was 1%. Hundred percent DMSO was used as a high and low control. Assays were run in singlicate with a reference compound included in each assay to evaluate reproducibility and assay quality.
Wells containing the fluorescent probe, antibody, and target (ARAF) were used as the high reaction control (total binding) and wells containing the probe and antibody were used as the low reaction control (nonspecific binding). […] Next, the substrate antibody solution was added, and the reaction was incubated for 60 minutes at room temperature. Percentage inhibition of each well was calculated using the following formula: % inhibition = 100 − [compound emission ratio (ER) − low control ER/high control ER − low control ER] × 100. Results were fitted to a concentration response curve with a variable slope and constraints of 0 and 100 for bottom and top, respectively, to generate the IC50 values.

The test system of the next assay is BRAF wt. Further details: method as in earlier work. The settings on record: full length human construct; 0.125 nmol/L GST-tagged BRAF wild type, 12.5 nmol/L biotinylated MEK, ATP 50 μmol/L; 41 (TAK-632: ref 26-28); cited from earlier work.
A further assay concerns NF1-LOF tumor cell lines. As to the kind of experiment: CellTiter-Glo cell viability assay, statement on all three NF1-LOF tumor cell lines. To be noted: CTG 72 hours.

Like-named read-outs stand apart in the source and are kept apart here.

For orientation: IC50 means the concentration at which inhibition is half-maximal.

Description for NF1-LOF tumor cell lines: Next, 2 μL of each concentration was added to 198 μL assay medium (PBS) to create a 10× stock. […] MSD ELISA experiments were conducted by WuXi AppTec on whole cell lysates and generated using the Phospho/Total ERK1/2 Assay Whole Cell Lysate Kit (MSD, cat. no. K15107D) according to the manufacturer’s protocol.
The in vitro anti-proliferation effect of each of the test compounds was assessed in NF1-LOF and BRAF V600E tumor cell lines cultured as a monolayer using the CellTiter-Glo (CTG) cell viability assay. Cell culture experiments were performed with duplicate wells. Cell concentrations were adjusted for cell density (seeding density of 5,000 for sNF96.2 and MeWo; 6,000 for NCI-H1838; and 2,500 for A375) prior to plating onto a 96-well assay plate and incubated overnight at 37°C with 5% CO2, 95% air, and 100% relative humidity.
Anti-proliferative activity was assessed after 72 hours of treatment with the test compound or control. […] DMSO was also applied as a control on days 2 and 3. The final DMSO concentration for all test compounds and vehicle control was 0.1%. […] Luminescence was measured on day 3 using the 2104 EnVision Multilabel Reader (PerkinElmer).
The inhibition rate of the tested compounds was determined using the following formula: inhibition rate (%) = (1 − [relative luminescence unit (RLU) compound − RLU blank])/(RLU control − RLU blank) × 100. […]
Description for pERK in MeWo (NF1-LOF): as §1, §2, §3, §4

Turning to `O=C1CCc2c(Oc3ccc4c(c3)[C@@H]3[C@H](O4)[C@H]3c3nc4ccc(C(F)(F)F)cc4[nH]3)ccnc2N1` [BGB-283], in assay [1] (1 hour after treatment), the “extent of the pERK increase” value was “higher extent”.
The same measure, in the same setting: in the case of `Cc1ccc2c(Nc3cccc(Cl)c3F)nccc2c1NC(=O)c1csc2c(N)ncnc12` [Belvarafenib] it was “lesser extent”; in that of `Cc1ccc(NC(=O)c2ccnc(C(F)(F)F)c2)cc1-c1cc(OCCO)nc(N2CCOCC2)c1` [LXH254], “lesser extent”.
For the compound `N#Cc1c(Oc2ccc(F)c(NC(=O)Cc3cccc(C(F)(F)F)c3)c2)ccc2nc(NC(=O)C3CC3)sc12` [TAK-632], the EC50 amounted to 0.75 µM in [2] (sNF96.2, NF1-LOF, MPNST, 1 hour after treatment, n = 2); 4.1 µM with MeWo (read-out: Proliferation EC50, CTG 72 hours after treatment, repeated application of tovorafenib); 1.25 µM in assay [1] (NCI-H1838, NF1-LOF, lung, 1 hour after treatment, n = 1); 1.6 µM in the assay on pERK in MeWo (NF1-LOF) (read-out: pERK EC50, NF1-LOF, melanoma, 1 hour after treatment, n = 2); 2.4 µM in the assay with sNF96.2 (sNF96.2, CTG 72 hours after treatment, repeated application of tovorafenib); 0.07 µM in the assay on A375 (A375, CTG 72 hours after treatment, repeated application of tovorafenib). Moreover, the EC50 was 0.03 µM in assay [3] and 3.3 µM in the assay on NCI-H1838 (NCI-H1838, CTG 72 hours after treatment, n = 1, repeated application of tovorafenib). For the same compound, in assay [1] (1 hour after treatment), the “extent of the pERK increase” value is given as “lesser extent”. The IC50 is 0.0014 µM in the assay with CRAF wt, 0.215 µM at ARAF and 0.0083 µM in the assay with BRAF wt.
Consider `CCCS(=O)(=O)Nc1ccc(F)c(C(=O)c2c[nH]c3ncc(-c4ccc(Cl)cc4)cc23)c1F` [Vemurafenib], for which the EC50 in assay [2] (SNF96.2, 1 h) is above 10 µM; in the assay on MeWo (Homo sapiens, 72 h, read-out: Proliferation EC50), 4.5 µM; in [1] (Homo sapiens, NCI-H1838, 1 h), above 10 µM; in the assay on pERK in MeWo (NF1-LOF) (Homo sapiens, 1 h, read-out: pERK EC50) it was above 10 µM; in the assay with sNF96.2 (SNF96.2, 72 h), 6 µM; with A375 (Homo sapiens, A-375, 72 h), 0.09 µM. In addition, the EC50 is 0.02 µM in assay [3] (Homo sapiens, A-375) and above 10 µM with NCI-H1838 (Homo sapiens, NCI-H1838, 72 h). For the same compound, the “sensitivity of cell lines” value in the assay on NF1-LOF tumor cell lines is listed as “insensitive”.

These data come from paper PMC12015663 (Cancer Research Communications, 2025).
